According to ChEMBL document CHEMBL2176988 (J Med Chem, 2012):

Assays:
[1] = molecular target: T1, Neuronal acetylcholine receptor; alpha3/beta4 (Homo sapiens, UniProt P30926+P32297); experiment: Displacement of [3H]epibatidine from human alpha3beta4 nAChR expressed in CHO cells after 2 hrs by liquid scintillation counting; format: cell-based
[2] = molecular target: T1, Neuronal acetylcholine receptor; alpha3/beta4; experiment: Agonist activity at human alpha3beta4 nAChR expressed in CHO cells assessed as calcium flux by calcium4-based FLIPR assay; format: functional, cell-based
[3] = molecular target: T2, Neuronal acetylcholine receptor; alpha4/beta2 (Homo sapiens, UniProt P17787+P43681); experiment: Agonist activity at alpha4beta2 nAChR in human SH-EP1 cells assessed as calcium flux by calcium4-based FLIPR assay relative to nicotine; format: functional, cell-based
[4] = molecular target: T2, Neuronal acetylcholine receptor; alpha4/beta2; experiment: Displacement of [3H]nicotine from alpha4beta2 nAChR in human SH-EP1 cells after 2 hrs by liquid scintillation assay; format: cell-based
[5] = molecular target: Neuronal acetylcholine receptor; alpha4/beta2 (Rattus norvegicus, UniProt P09483+P12390); experiment: Displacement of [3H]epibatidine from alpha4beta2 nAChR in Sprague-Dawley rat cortex after 2 hrs by liquid scintillation counting
[6] = molecular target: T2, Neuronal acetylcholine receptor; alpha4/beta2; experiment: Agonist activity at alpha4beta2 nAChR in human SH-EP1 cells assessed as calcium flux by calcium4-based FLIPR assay; format: functional, cell-based
[7] = molecular target: Neuronal acetylcholine receptor subunit alpha-7 (Homo sapiens, UniProt P36544); experiment: Displacement of [3H]epibatidine from human alpha7 nAChR expressed in CHO cells after 2 hrs by liquid scintillation counting; format: cell-based
[8] = molecular target: T1, Neuronal acetylcholine receptor; alpha3/beta4; experiment: Agonist activity at human alpha3beta4 nAChR expressed in CHO cells assessed as calcium flux by calcium4-based FLIPR assay relative to nicotine; format: functional, cell-based

Neuronal acetylcholine receptor; alpha4/beta2 (Rattus norvegicus, UniProt P09483+P12390), sequence (P09483 whole entry): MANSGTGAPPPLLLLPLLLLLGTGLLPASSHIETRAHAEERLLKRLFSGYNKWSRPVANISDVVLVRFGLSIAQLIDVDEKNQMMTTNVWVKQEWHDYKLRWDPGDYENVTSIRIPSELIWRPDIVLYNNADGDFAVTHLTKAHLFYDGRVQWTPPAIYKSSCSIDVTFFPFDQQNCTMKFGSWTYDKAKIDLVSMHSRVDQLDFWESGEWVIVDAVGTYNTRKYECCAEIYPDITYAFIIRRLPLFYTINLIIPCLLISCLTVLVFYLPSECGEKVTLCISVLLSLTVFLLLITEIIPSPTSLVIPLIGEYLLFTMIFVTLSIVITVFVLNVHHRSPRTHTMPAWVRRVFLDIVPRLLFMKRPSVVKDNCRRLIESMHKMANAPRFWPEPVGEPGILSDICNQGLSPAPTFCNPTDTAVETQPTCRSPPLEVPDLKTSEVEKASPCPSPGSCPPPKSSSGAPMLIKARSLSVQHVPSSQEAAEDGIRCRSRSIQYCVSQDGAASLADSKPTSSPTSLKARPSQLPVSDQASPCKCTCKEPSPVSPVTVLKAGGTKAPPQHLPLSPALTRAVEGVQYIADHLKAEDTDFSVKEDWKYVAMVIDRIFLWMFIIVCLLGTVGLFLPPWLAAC
Neuronal acetylcholine receptor; alpha4/beta2 (Rattus norvegicus, UniProt P09483+P12390), sequence (P12390 whole entry): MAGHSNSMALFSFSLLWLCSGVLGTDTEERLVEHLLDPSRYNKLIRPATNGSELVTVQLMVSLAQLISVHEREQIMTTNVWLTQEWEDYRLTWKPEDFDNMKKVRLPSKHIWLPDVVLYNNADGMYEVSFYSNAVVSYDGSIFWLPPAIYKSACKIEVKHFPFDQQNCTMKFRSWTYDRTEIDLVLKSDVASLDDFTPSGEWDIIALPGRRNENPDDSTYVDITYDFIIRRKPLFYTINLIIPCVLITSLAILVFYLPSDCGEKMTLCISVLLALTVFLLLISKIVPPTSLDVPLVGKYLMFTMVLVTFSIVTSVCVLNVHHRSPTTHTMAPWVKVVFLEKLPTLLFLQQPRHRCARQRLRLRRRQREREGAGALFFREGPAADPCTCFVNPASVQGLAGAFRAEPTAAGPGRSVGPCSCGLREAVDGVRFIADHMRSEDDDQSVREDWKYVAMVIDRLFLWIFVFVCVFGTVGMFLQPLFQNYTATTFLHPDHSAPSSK
T1 sequence (P30926 whole entry): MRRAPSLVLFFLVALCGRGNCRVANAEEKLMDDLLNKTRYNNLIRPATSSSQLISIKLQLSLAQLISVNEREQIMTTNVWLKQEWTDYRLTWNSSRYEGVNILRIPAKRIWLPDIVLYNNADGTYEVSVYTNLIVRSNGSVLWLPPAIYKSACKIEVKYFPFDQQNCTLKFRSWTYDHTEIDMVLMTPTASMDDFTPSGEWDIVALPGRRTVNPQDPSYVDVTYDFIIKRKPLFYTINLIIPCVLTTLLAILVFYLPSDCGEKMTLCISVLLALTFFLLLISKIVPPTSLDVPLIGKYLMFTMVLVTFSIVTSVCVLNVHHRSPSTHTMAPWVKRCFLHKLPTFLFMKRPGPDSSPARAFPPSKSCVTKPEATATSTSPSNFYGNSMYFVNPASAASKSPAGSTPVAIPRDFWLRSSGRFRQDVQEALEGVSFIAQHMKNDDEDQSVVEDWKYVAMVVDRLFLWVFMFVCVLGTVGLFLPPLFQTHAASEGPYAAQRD
T1 sequence (P32297 whole entry): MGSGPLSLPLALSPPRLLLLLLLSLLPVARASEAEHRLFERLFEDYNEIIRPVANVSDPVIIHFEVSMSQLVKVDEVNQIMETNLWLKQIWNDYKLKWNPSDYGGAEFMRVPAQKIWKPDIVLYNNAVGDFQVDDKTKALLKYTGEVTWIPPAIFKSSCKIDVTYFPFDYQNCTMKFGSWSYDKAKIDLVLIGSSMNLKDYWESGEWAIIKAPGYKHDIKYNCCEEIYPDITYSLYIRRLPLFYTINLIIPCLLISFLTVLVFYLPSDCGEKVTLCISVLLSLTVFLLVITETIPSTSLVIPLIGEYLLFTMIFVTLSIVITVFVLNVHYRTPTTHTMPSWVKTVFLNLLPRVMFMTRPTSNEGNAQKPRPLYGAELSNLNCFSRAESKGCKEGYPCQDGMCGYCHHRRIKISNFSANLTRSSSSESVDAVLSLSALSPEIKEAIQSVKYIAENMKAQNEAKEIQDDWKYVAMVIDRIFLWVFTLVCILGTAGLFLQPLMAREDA
Neuronal acetylcholine receptor subunit alpha-7, sequence (P36544 whole entry): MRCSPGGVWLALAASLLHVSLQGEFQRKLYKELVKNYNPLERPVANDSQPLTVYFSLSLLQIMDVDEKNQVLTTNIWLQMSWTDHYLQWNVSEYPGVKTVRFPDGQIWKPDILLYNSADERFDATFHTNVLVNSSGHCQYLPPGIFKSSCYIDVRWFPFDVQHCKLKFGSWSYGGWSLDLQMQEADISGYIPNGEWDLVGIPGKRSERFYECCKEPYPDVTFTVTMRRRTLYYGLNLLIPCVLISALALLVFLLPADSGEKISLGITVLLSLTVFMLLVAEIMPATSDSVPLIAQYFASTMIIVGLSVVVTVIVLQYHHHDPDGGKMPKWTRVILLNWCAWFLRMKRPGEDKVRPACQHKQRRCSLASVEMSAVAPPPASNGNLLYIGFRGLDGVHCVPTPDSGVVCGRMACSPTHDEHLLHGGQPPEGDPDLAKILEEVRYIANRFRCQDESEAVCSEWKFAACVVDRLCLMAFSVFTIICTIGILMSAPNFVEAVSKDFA
T2 sequence (P17787 whole entry): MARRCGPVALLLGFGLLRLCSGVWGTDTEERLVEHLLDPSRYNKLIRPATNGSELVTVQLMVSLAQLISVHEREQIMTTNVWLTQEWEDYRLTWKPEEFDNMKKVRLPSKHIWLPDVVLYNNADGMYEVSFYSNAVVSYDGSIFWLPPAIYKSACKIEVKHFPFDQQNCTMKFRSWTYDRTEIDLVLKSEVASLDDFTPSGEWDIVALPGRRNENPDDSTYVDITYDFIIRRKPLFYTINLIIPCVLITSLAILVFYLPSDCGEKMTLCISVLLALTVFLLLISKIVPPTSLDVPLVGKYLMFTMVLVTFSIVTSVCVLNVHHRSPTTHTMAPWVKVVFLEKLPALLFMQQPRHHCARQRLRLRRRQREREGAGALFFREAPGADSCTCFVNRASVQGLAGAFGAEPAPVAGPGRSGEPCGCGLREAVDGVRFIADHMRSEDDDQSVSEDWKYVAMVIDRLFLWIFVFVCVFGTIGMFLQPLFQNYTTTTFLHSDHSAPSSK
T2 sequence (P43681 whole entry): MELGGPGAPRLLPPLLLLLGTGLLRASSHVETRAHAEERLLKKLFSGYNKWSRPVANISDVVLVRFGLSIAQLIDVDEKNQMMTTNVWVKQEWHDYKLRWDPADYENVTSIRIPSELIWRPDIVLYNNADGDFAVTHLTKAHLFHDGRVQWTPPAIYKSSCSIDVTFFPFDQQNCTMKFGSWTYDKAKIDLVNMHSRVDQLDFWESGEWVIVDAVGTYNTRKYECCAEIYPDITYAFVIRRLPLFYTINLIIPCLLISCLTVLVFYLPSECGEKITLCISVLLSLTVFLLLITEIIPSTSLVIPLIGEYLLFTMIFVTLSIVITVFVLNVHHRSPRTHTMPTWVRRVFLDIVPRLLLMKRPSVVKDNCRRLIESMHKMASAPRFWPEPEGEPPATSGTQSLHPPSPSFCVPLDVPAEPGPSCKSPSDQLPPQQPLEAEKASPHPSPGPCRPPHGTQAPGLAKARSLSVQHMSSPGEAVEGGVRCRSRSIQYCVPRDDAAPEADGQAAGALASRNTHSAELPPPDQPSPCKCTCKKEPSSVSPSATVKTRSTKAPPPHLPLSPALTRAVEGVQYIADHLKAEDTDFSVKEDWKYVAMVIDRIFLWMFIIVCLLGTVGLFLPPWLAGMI

`O=C(c1ccncc1)N1CC2CNCC(C2)C1` showed a Ki [1] greater than 10 µM, an EC50 [2] of 54 µM and an Emax [3] of 7%. It also gave a Ki [4] of 0.037 µM, a Ki [5] of 0.057 µM and an EC50 [6] of 19 µM. It also gave a Ki [7] greater than 10 µM and an Emax [8] of 6%.

For `O=C(c1cnco1)N1CC2CNCC2C1` (centres undefined), the Ki [1] was 11 µM, the EC50 [2] was 35 µM and the Emax [3] was 110%. It also gave a Ki [4] of 0.11 µM, a Ki [5] of 0.13 µM and an EC50 [6] of 4.2 µM. The Ki [7] was 7.6 µM and the Emax [8] was 11%.

`O=C(c1ccc(F)o1)N1C[C@@H]2CN[C@H](C2)C1` was tested, and the Ki [1] was 0.9 µM, the EC50 [2] was 6.9 µM and the Emax [3] was 110%. It also gave a Ki [4] of 0.005 µM, a Ki [5] of 0.017 µM and an EC50 [6] of 2.1 µM. The Ki [7] was 14 µM and the Emax [8] was 110%.

`O=C(c1ccc(Br)o1)N1C[C@@H]2CN[C@H](C2)C1` was tested, and the Ki [1] was 1.5 µM, the EC50 [2] was 16 µM and the Emax [3] was 27%. The Ki [4] was 0.009 µM, the Ki [5] was 0.057 µM and the EC50 [6] was 12 µM. The Ki [7] was 8.2 µM and the Emax [8] was 61%.

`O=C(c1ccno1)N1CC2CNCC2C1` (centres undefined) showed a Ki [1] of 7.1 µM, an EC50 [2] of 66 µM and an Emax [3] of 150%. The Ki [4] was 0.049 µM, the Ki [5] was 0.047 µM and the EC50 [6] was 6.8 µM. It also gave a Ki [7] of 19 µM and an Emax [8] of 17%.

`O=C(c1ccccc1)N1CC2CNCC(C2)C1` was tested, and the Ki [1] was 100 µM, the EC50 [2] was 28 µM and the Emax [3] was 8%. It also gave a Ki [4] of 0.92 µM, a Ki [5] of 1.7 µM and an EC50 [6] of 100 µM. The Ki [7] was 34 µM and the Emax [8] was 8%.

For `O=C(c1occc1Br)N1CC2CNCC2C1` (centres undefined), the Ki [1] was 3.8 µM, the EC50 [2] was 27 µM and the Emax [3] was 90%. For the same compound, the Ki [4] was 0.002 µM, the Ki [5] was 0.008 µM and the EC50 [6] was 4.2 µM. It also gave a Ki [7] of 6.3 µM and an Emax [8] of 83%.

`O=C(c1ccc(Br)o1)N1C[C@H]2CN[C@@H](C2)C1` gave a Ki [1] of 3 µM, an EC50 [2] of 13 µM and an Emax [3] of 50%. For the same compound, the Ki [4] was 0.045 µM, the Ki [5] was 0.085 µM and the EC50 [6] was 4.8 µM. It also gave a Ki [7] of 14 µM and an Emax [8] of 43%.

`O=C(c1cc(Cl)co1)N1CC2CNCC2C1` (centres undefined) was tested, and the Ki [1] was 7.1 µM, the EC50 [2] was 56 µM and the Emax [3] was 39%. The Ki [4] was 0.011 µM, the Ki [5] was 0.065 µM and the EC50 [6] was 11 µM. The Ki [7] was greater than 10 µM and the Emax [8] was 53%.

`O=C(c1ccco1)N1CC2CNC(C2)C1` (centres undefined) gave a Ki [1] of 1.7 µM, an EC50 [2] of 6.9 µM and an Emax [3] of 65%. It also gave an EC50 [6] of 2.6 µM, a Ki [7] of 7.8 µM and an Emax [8] of 34%.

For `O=C(c1ccncc1)N1CC2CNC(C2)C1` (centres undefined), the Ki [1] was 1.5 µM, the EC50 [2] was 9.2 µM and the Emax [3] was 8%. For the same compound, the Ki [5] was 0.025 µM, the EC50 [6] was 42 µM and the Ki [7] was 1.3 µM. The Emax [8] was 110%.

Compound `O=C(c1ccco1)N1C[C@H]2CN[C@@H](C2)C1` has a Ki [1] of 1.7 µM, an EC50 [2] of 17 µM and an Emax [3] of 83%. It also gave a Ki [4] of 0.015 µM, a Ki [5] of 0.097 µM and an EC50 [6] of 4.7 µM. For the same compound, the Ki [7] was 0.56 µM and the Emax [8] was 120%.

`O=C(C1CC1)N1CC2CNCC(C2)C1` showed a Ki [1] of 0.11 µM, an EC50 [2] of 1.2 µM and an Emax [3] of 46%. For the same compound, the Ki [4] was 0.001 µM, the Ki [5] was 0.002 µM and the EC50 [6] was 0.85 µM. For the same compound, the Ki [7] was 0.02 µM and the Emax [8] was 160%.

`O=C(c1ccco1)N1CC2CNCC2C1` (centres undefined) gave a Ki [1] of 72 µM, an EC50 [2] of 42 µM and an Emax [3] of 170%. For the same compound, the Ki [5] was 0.053 µM, the EC50 [6] was 4.5 µM and the Ki [7] was 5.9 µM. The Emax [8] was 32%.

`N#Cc1ccc(C(=O)N2CC3CNCC3C2)o1` (centres undefined) was tested, and the Ki [1] was 4.8 µM, the EC50 [2] was 61 µM and the Emax [3] was 90%. For the same compound, the Ki [4] was 0.053 µM, the EC50 [6] was 24 µM and the Ki [7] was greater than 10 µM. It also gave an Emax [8] of 14%.

Work on `O=C(c1ccoc1)N1CC2CNCC2C1` (centres undefined) yielded a Ki [1] of 4.8 µM, an EC50 [2] of 35 µM and an Emax [3] of 110%. The Ki [4] was 0.019 µM, the EC50 [6] was 5.8 µM and the Ki [7] was 100 µM. The Emax [8] was 31%.

`O=C(c1cc(F)co1)N1CC2CNCC2C1` (centres undefined) showed a Ki [1] of 8.3 µM, an EC50 [2] of 36 µM and an Emax [3] of 130%. It also gave a Ki [4] of 0.032 µM, an EC50 [6] of 1.4 µM and a Ki [7] greater than 10 µM. The Emax [8] was 17%.
